We go through one substance from patent publication US8603465B1, “Methods for treatment of polyposis” (Merck Sharp & Dohme, Corp., priority 2006, dated 2013).

This assay concerns C57Bl/6J (hIGF1R, Apc^Min/+) mice. Description: Inhibition of polyposis in human IGF1R knock-in Apc Min/+ mice (adenoma number and diameter scored at postnatal day 80). The note with it: small intestine and colon, 19D12 0.02, 0.1, 0.5 mg/mouse i.p. once a week, celecoxib 150, 500, 1500 ppm in diet. The assay is classed as in vivo. The source says:
In this example, the ability of anti-IGF1R antibody 19D12 (LCF/HCA: amino acids 20-128 of SEQ ID NO: 8 and 20-137 of SEQ ID NO: 10) to treat familial adenomatous polyposis (FAP) is established in a mouse model for the disease. The model comprises the Apc^Min/+ allele which imparts the FAP phenotype. A phenotype that results from the allele is increased development of intestinal adenomas. The Min mutant mouse has an autosomal dominant heterozygous nonsense mutation in the mouse Apc gene (see e.g., Su et al., Science (Wash D.C.) 256: 668-670 (1992)).
The Min mice are also engineered, by a knock-in mutation, to express the human IGF1R gene. Expression of the IGF1R gene, in the Min mouse, allows determination of the ability of an anti-IGF1R antibody to alleviate the FAP phenotype. […]
Small intestinal adenomas and colonic adenomas are scored for number and diameter at postnatal day 80. […] Small intestine surface area is calculated by summation of the multiples of length of each fixed segment by width, which is measured at the midpoint of each segment. Colon surface area is calculated by multiplying the length of the fixed material from the anorectal junction to the point of insertion of the small intestine, omitting the appendix, by the width at the midpoint. Raw numbers of adenomas observed as well as adenomas per unit of small intestine and colon surface area are calculated.

Regarding “19D12 (LCF/HCA): anti-IGF1R antibody 19D12 (LCF/HCA: amino acids 20-128 of SEQ ID NO: 8 and 20-137 of SEQ ID NO: 10)”, the “adenomas per unit surface area” value is reported as “dose-dependent reduction” and the raw adenoma number entry is reported as “dose-dependent reduction”.
